Test results as given in PMC6692898 (Chemical research in toxicology, 2019).
Where two headings read alike, the source gives them in different places.

Columns and labels:
[1] = Time-course decay of TBF-A in HLM, control Supersomes and isozyme Supersomes; type: in vitro ADME, human
CYP2C19 = CYP2C19 (Homo sapiens, UniProt P33261); test: Steady-state kinetics by recombinant CYP2C19 Supersomes; type: in vitro ADME
[2] = cited from earlier work
[3] = 1-Naphthaldehyde decay/depletion in human liver microsomes and Supersomes; type: in vitro ADME
[4] = substrate: CN(C/C=C/C#CC(C)(C)C)Cc1cccc2ccccc12; test: cells, lysate or membranes named; conditions: CYP2C19, pH 7.4
[5] = 50 μM TBF-A, normalized per mg/protein
[6] = step 2.2a, metabolite 1-naphthyl-methylamine, CYP2C19
[7] = step 2.2b, metabolite 1-naphthaldehyde, CYP2C19

In the case of `CC(C)(C)C#CC=CC=O` [TBF-A, 6,6-dimethyl-2-hepten-4-ynal], the “end-point plateau for CYP3A4 higher than that of HLM” value ([1]; 50 μM TBF-A decay) is reported as ~4 fold, the “end-point plateau of CYP2C19 higher than for both HLM and control Supersomes” value ([1]; 50 μM TBF-A decay) is reported as “roughly 2 fold” and the “decay faster in HLM compared to CYP2C19 Supersomes” value [1, 5] is reported as 13%. The “decay faster in HLM compared to CYP3A4 Supersomes” value [1, 5] was 55%.

In the case of `CN(C/C=C/C#CC(C)(C)C)Cc1cccc2ccccc12` [terbinafine], the Km at 30 min (CYP2C19; human, recombinant CYP2C19 Supersomes, pH 7.4, Km (affinity), CYP2C19, oxidative nondealkylation reactions) is listed as < 100 µM, the “time remaining at therapeutic levels in the body after therapy ceases” value ([2]; due to bioaccumulation) is listed as “up to a month” and the plasma levels ([2]; reported) is listed as 1000 ng/mL. The protein binding ([2]; reported) was > 99%.

In the case of `O=Cc1cccc2ccccc12` [1-naphthaldehyde], the “effect of microsomes and NADPH on decay or disappearance” value ([3]; 50 μM 1-naphthaldehyde, active or heat-inactivated human liver microsomes, presence or absence of NADPH) is reported as “not significantly affected” and the “depletion in Supersomes compared with human liver microsomes” value ([3]; 10 and 50 μM 1-naphthaldehyde, NADPH, CYP2C19 and 3A4 Supersomes, after 30 min) is reported as “more significant decrease”.

For `CC(C)(C)C#C/C=C/CNCc1cccc2ccccc12` [desmethyl-terbinafine], the “Km higher than the value for terbinafine N-denaphthylation (Pathway 3)” value (CYP2C19; CYP2C19) was “about 5 fold”, the “decrease in N-denaphthylation catalytic efficiency from terbinafine to desmethyl-terbinafine” value (CYP2C19; CYP2C19) was ~15 fold and the “higher rate of turnover (Vmax) than for the parent drug” value (CYP2C19; N-denaphthylation by CYP2C19) was “about 3 fold”. For the same molecule, the “efficiency of 1-naphthyl methylamine formation by CYP2C19 relative to 3A4” value (CYP2C19; Pathway 2.2a) was “about 3 fold”, the “higher Vmax for CYP2C19” value (CYP2C19; formation of the desmethyl-terbinafine dihydrodiols, loss of the methyl group) was “approximately 10 fold” and the Km (CYP2C19; read-out: Km (affinity), CYP2C19, oxidative nondealkylation reactions) was < 100 µM. The Km (CYP2C19; [6]) was 220 ± 55 µM, the V/K (CYP2C19; [6]) was 3.7 and the Vmax (CYP2C19; [6]) was 810 ± 92 pmol/min/nmol of protein. The Km (CYP2C19; [7]) was 150 ± 58 µM, the V/K (CYP2C19; [7]) was 8.7 and the Vmax (CYP2C19; [7]) was 1300 ± 59 pmol/min/nmol of protein.

B1: CYP2C19 (Homo sapiens) (protein)
chain: MDPFVVLVLCLSCLLLLSIWRQSSGRGKLPPGPTPLPVIGNILQIDIKDVSKSLTNLSKIYGPVFTLYFGLERMVVLHGYEVVKEALIDLGEEFSGRGHFPLAERANRGFGIVFSNGKRWKEIRRFSLMTLRNFGMGKRSIEDRVQEEARCLVEELRKTKASPCDPTFILGCAPCNVICSIIFQKRFDYKDQQFLNLMEKLNENIRIVSTPWIQICNNFPTIIDYFPGTHNKLLKNLAFMESDILEKVKEHQESMDINNPRDFIDCFLIKMEKEKQNQQSEFTIENLVITAADLLGAGTETTSTTLRYALLLLLKHPEVTAKVQEEIERVIGRNRSPCMQDRGHMPYTDAVVHEVQRYIDLIPTSLPHAVTCDVKFRNYLIPKGTTILTSLTSVLHDNKEFPNPEMFDPRHFLDEGGNFKKSNYFMPFSAGKRICVGEGLARMELFLFLTFILQNFNLKSLIDPKDLDTTPVVNGFASVPPFYQLCFIPV
B1 gave a Km ([4]; other: step 1.1, metabolite N-methyl-1-naphthyl-methylamine) of 120 ± 22 µM, a Km ([4]; other: step 2.1, metabolite desmethyl-terbinafine) of 37 ± 6.7 µM and a Km ([4]; other: step 3.1, metabolite 1-naphthaldehyde) of 3.0 ± 0.83 µM.
